ChEMBL document CHEMBL5257088 (J Nat Prod, 2023)
Activity calls are given as the source filed them. The calls are words filed in the database; no cut-off is given here.

Legend:
[1] = target: T1, Muscarinic acetylcholine receptor M2 (Homo sapiens, UniProt P08172)
T1 sequence (P08172 whole entry): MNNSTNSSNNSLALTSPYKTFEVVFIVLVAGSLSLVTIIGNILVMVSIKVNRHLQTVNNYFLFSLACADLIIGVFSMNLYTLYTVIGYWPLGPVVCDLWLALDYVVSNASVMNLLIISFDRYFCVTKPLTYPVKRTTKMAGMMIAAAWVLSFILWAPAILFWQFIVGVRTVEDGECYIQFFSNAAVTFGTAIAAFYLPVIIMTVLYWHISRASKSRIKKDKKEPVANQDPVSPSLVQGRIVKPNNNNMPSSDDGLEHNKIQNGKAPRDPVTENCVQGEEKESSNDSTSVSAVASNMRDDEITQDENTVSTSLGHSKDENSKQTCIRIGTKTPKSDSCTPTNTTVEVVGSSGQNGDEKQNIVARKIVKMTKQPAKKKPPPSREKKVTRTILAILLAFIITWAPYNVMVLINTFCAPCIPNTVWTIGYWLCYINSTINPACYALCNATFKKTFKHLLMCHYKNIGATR
Description: Partial agonist activity at C-terminal NanoLuc tagged human muscarinic M2 receptor expressed in HEK293T cells using furimazine as substrate assessed as receptor activation preincubated with substrate for 1 min followed by compound addition and measured for 6 mins 27 sec by NanoBRET assay

[2] = target: T2, Muscarinic acetylcholine receptor M3 (Homo sapiens, UniProt P20309)
Target sequence in this assay (P20309 whole entry): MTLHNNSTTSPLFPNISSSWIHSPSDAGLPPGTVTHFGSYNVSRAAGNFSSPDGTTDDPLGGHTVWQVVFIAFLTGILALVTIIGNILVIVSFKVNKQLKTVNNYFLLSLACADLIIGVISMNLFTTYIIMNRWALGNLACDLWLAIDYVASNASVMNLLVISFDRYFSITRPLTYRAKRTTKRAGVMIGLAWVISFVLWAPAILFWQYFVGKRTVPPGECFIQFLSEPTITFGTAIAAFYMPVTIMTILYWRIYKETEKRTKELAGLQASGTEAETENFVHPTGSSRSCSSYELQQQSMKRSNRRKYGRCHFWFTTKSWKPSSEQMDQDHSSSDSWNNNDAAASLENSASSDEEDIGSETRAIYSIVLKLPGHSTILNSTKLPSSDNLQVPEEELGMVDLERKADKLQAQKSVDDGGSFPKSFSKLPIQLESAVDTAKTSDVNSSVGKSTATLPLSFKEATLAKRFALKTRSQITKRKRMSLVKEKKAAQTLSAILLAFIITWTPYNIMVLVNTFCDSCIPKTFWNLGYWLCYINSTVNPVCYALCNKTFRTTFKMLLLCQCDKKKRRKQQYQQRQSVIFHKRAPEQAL
Description: Partial agonist activity at C-terminal NanoLuc tagged human muscarinic M3 receptor expressed in HEK293T cells using furimazine as substrate assessed as receptor activation preincubated with substrate for 1 min followed by compound addition and measured for 6 mins 27 sec by NanoBRET assay

[3] = target: T3, Muscarinic acetylcholine receptor M1 (Homo sapiens, UniProt P11229)
T3 sequence (P11229 whole entry): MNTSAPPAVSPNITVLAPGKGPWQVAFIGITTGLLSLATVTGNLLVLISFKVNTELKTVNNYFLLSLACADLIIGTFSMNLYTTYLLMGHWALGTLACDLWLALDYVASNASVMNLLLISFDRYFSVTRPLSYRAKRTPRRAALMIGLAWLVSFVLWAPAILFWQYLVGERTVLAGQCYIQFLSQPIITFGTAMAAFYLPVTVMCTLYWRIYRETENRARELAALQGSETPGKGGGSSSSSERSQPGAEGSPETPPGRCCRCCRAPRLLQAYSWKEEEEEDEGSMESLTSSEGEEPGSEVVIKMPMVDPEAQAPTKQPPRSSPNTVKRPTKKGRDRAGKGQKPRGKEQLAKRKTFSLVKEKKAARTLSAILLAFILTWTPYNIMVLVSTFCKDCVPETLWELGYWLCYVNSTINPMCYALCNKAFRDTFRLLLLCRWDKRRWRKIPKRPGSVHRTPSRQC
Description: Partial agonist activity at N-terminal FLAG tagged/C-terminal NanoLuc tagged human muscarinic M1 receptor expressed in HEK293T cells using furimazine as substrate assessed as receptor activation preincubated with substrate for 1 min followed by compound addition and measured for 6 mins 27 sec by NanoBRET assay

[4] = target: T4, Muscarinic acetylcholine receptor M1 (Homo sapiens) (UniProt P11229); test: (§1) Partial agonist activity at N-terminal FLAG tagged/C-terminal NanoLuc tagged human muscarinic M1 receptor expressed in HEK293T cells using furimazine as substrate assessed as receptor activation at 100 uM preincubated with substrate for 1 min followed by compound addition and measured for 6 mins 27 sec by NanoBRET assay; assay type: cell-based; details: time 387.0 sec
T4 sequence (whole entry): T3 sequence (P11229 whole entry)

[5] = target: T2, Muscarinic acetylcholine receptor M3; test: Partial agonist activity at C-terminal NanoLuc tagged human muscarinic M3 receptor expressed in HEK293T cells using furimazine as substrate assessed as receptor activation at 100 uM preincubated with substrate for 1 min followed by compound addition and measured for 6 mins 27 sec by NanoBRET assay; assay type: cell-based; details: time 387.0 sec
Target sequence in this assay (P20309 whole entry, looked up): as the sequence (P20309 whole entry) above

[6] = target: T5, Muscarinic acetylcholine receptor M5 (Homo sapiens) (UniProt P08912); test: as §1, with “M5” for “M1”; assay type: cell-based; details: time 387.0 sec
T5 sequence (whole entry): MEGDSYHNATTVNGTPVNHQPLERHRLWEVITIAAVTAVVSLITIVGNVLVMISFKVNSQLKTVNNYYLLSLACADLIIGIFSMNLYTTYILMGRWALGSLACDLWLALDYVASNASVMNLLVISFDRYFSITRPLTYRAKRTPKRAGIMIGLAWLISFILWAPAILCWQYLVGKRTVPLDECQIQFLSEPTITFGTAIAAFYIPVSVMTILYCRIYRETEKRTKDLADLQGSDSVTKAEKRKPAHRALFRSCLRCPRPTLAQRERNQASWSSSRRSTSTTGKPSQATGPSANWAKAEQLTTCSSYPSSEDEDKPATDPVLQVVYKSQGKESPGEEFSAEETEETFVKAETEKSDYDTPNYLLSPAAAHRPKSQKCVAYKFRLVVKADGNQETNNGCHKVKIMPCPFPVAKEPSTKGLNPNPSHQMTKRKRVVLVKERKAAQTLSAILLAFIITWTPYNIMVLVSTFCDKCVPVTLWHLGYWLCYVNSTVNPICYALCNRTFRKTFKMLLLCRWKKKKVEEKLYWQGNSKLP

[7] = target: T6, Muscarinic acetylcholine receptor M4 (Homo sapiens, UniProt P08173)
T6 sequence (P08173 whole entry): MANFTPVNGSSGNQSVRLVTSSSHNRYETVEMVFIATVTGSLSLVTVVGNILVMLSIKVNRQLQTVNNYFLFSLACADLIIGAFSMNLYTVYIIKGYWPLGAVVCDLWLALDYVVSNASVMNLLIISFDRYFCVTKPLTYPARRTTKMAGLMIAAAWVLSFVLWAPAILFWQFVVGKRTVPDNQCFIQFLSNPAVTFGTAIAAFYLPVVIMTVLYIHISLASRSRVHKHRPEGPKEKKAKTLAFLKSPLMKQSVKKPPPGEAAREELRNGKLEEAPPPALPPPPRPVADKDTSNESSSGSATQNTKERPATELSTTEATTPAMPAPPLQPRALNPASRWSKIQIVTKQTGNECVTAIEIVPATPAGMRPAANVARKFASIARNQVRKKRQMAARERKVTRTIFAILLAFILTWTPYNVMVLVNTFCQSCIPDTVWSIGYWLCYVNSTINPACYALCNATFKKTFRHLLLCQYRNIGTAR
Description: Partial agonist activity at N-terminal FLAG tagged/C-terminal NanoLuc tagged human muscarinic M4 receptor expressed in HEK293T cells using furimazine as substrate assessed as receptor activation preincubated with substrate for 1 min followed by compound addition and measured for 6 mins 27 sec by NanoBRET assay

[8] = target: T7, Muscarinic acetylcholine receptor M5 (Homo sapiens, UniProt P08912)
T7 sequence (P08912 whole entry): T5 sequence (whole entry)
Description: Partial agonist activity at N-terminal FLAG tagged/C-terminal NanoLuc tagged human muscarinic M5 receptor expressed in HEK293T cells using furimazine as substrate assessed as receptor activation preincubated with substrate for 1 min followed by compound addition and measured for 6 mins 27 sec by NanoBRET assay

[9] = target: T8, Muscarinic acetylcholine receptor M4 (Homo sapiens) (UniProt P08173); test: as §1, with “M4” for “M1”; assay type: cell-based; details: time 387.0 sec
T8 sequence (whole entry): T6 sequence (P08173 whole entry)

Row | Compound | EC50 [1] | EC50 [2] | EC50 [3] | Activity [4] | Activity [5] | Activity [6] | EC50 [7] | EC50 [8] | Activity [9]
1 | CC[C@@H]1C(=O)OC[C@@H]1Cc1c[n+](CCCCCC[N+](C)(C)CC(C)(C)CN2C(=O)c3cccc4cccc(c34)C2=O)cn1C | 1070 nM | 16.2 µM | 34.7 µM |  |  |  |  |  | 
2 | CC[C@@H]1C(=O)OC[C@@H]1Cc1c[n+](CCCCCCCC[N+](C)(C)CC(C)(C)CN2C(=O)c3cccc4cccc(c34)C2=O)cn1C |  |  |  | inactive | inactive | inactive | 0.0955 µM |  | 
3 | O=C1C[C@@H](Cc2cnc[nH]2)CO1 | 1380 nM | 20.9 µM | 6.17 µM |  |  |  | 7.41 µM | 14.8 µM | 
4 | Cn1cncc1C[C@H]1COC(=O)C1 [PILOSININE] |  |  |  | inactive | inactive |  |  | 26.3 µM | inactive
5 | CC[C@H]1C(=O)OC[C@@H]1Cc1c[n+](CCCCCCCC[N+](C)(C)CC(C)(C)CN2C(=O)c3cccc4cccc(c34)C2=O)cn1C |  | 31.6 µM |  | inactive |  | inactive |  |  | inactive

Second part, led by results:

Row | EC50 [1] | EC50 [2] | EC50 [3] | Activity [4] | Activity [5] | Activity [6] | EC50 [7] | Compound | EC50 [8] | Activity [9]
6 |  |  |  | inactive | inactive | inactive | 36.3 µM | Cn1c[n+](CCCCCC[N+](C)(C)CC(C)(C)CN2C(=O)c3cccc4cccc(c34)C2=O)cc1CC1COC(=O)C1 (configuration not stated) |  | 
7 | 537 nM | 2.82 µM | 1.74 µM |  |  |  |  | CC[C@H]1C(=O)OC[C@@H]1Cc1c[n+](CCCCCC[N+](C)(C)CC(C)(C)CN2C(=O)c3cccc4cccc(c34)C2=O)cn1C |  | 
8 | 251 nM |  | 0.251 µM |  | inactive | inactive | 2.63 µM | CC(C)(CN1C(=O)c2cccc3cccc(c23)C1=O)C[N+](C)(C)CCCCCC[n+]1c[nH]c(CC2COC(=O)C2)c1 (configuration not stated) |  | 
